Measurements as given in the kinase profiling compilation of Christmann-Franck et al. (2016).

Assays:
Experiment in all cases: KINOMEscan competition binding
Conditions in all cases: compound 10.0 µM
HUNK (human) = HUNK (human) (UniProt P57058)
BMPR2 (human) = BMPR2 (human) (UniProt Q13873)
PRKACA (human) = PRKACA (human) (UniProt P17612)
PRKD1 (human) = PRKD1 (human) (UniProt Q15139)
CDK7 (human) = CDK7 (human) (UniProt P50613)
PRKAA2 (human) = PRKAA2 (human) (UniProt P54646)
ACVR1B (human) = ACVR1B (human) (UniProt P36896)
RPS6KA1 KD1 (human) = RPS6KA1 KD1 (human) (UniProt Q15418)
NEK4 (human) = NEK4 (human) (UniProt P51957)
IKBKE (human) = IKBKE (human) (UniProt Q14164)
DMPK (human) = DMPK (human) (UniProt Q09013)
ACVR2A (human) = ACVR2A (human) (UniProt P27037)
SRPK1 (human) = SRPK1 (human) (UniProt Q96SB4)
SRMS (human) = SRMS (human) (UniProt Q9H3Y6)
TYRO3 (human) = TYRO3 (human) (UniProt Q06418)
CIT (human) = CIT (human) (UniProt O14578)
DYRK1A (human) = DYRK1A (human) (UniProt Q13627)
PIP4K2B (human) = PIP4K2B (human) (UniProt P78356)
FYN (human) = FYN (human) (UniProt P06241)
EPHA4 (human) = EPHA4 (human) (UniProt P54764)
MAPKAPK2 (human) = MAPKAPK2 (human) (UniProt P49137)
Chain of MAPKAPK2 (human) (P49137 whole entry, looked up): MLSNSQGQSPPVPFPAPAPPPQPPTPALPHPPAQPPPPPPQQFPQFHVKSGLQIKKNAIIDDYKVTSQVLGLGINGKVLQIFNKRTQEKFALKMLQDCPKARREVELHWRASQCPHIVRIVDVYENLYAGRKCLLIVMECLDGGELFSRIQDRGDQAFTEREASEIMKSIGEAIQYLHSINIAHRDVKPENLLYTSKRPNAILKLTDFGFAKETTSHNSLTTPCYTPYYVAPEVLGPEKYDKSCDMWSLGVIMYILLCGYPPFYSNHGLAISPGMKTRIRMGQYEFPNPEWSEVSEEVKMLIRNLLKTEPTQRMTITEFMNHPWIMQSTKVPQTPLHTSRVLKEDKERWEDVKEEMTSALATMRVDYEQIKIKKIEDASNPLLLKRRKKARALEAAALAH

[1] = system: EGFR (human), P00533 [L858R]
FGR (human) = FGR (human) (UniProt P09769)
Chain of FGR (human) (P09769 whole entry, looked up): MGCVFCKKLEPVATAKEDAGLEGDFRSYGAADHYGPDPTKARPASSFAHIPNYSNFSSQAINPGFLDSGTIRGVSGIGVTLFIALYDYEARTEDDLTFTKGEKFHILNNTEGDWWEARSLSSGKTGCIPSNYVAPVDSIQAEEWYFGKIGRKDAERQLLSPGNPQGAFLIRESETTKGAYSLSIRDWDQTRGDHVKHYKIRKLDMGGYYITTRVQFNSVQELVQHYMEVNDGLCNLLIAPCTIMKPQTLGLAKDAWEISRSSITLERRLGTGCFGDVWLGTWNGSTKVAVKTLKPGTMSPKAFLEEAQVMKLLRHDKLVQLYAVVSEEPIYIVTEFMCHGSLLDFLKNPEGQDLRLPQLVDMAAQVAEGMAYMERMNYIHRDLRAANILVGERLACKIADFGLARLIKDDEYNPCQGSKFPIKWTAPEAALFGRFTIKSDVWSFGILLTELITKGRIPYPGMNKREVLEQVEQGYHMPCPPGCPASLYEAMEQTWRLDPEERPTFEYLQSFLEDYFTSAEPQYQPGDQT

CASK (human) = CASK (human) (UniProt O14936)
PHKG1 (human) = PHKG1 (human) (UniProt Q16816)
ACVR1 (human) = ACVR1 (human) (UniProt Q04771)
[2] = system: LRRK2 (human), Q5S007 [G2019S]
MAP3K13 (human) = MAP3K13 (human) (UniProt O43283)
Chain of MAP3K13 (human) (O43283 whole entry, looked up): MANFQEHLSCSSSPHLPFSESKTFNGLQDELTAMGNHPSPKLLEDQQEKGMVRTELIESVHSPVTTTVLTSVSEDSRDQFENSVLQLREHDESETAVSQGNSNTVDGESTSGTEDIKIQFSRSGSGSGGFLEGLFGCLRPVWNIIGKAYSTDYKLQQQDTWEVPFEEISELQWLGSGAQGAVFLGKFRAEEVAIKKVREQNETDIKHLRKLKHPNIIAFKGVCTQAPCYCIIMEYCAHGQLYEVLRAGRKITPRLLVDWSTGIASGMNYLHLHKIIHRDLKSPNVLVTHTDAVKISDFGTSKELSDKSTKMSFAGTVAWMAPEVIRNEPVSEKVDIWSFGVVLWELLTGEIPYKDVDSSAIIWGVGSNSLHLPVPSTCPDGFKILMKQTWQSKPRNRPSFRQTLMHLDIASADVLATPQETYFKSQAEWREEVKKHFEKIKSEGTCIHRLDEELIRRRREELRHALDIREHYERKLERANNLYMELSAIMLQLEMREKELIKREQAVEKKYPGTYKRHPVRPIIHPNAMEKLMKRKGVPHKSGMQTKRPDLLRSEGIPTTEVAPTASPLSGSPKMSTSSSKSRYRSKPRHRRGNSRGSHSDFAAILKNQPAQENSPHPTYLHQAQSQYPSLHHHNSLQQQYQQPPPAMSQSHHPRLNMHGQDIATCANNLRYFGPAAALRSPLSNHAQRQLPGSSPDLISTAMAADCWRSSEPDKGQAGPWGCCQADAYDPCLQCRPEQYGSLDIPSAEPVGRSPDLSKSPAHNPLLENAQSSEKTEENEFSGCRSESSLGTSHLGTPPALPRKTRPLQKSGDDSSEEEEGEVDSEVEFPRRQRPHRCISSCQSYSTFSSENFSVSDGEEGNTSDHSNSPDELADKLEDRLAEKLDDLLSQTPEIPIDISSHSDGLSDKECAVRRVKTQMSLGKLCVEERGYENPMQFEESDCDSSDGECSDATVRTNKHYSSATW

AKT2 (human) = AKT2 (human) (UniProt P31751)
[3] = target: JAK1 JH1 catalytic (human) (UniProt P23458)
PRKCQ (human) = PRKCQ (human) (UniProt Q04759)
Chain of PRKCQ (human) (Q04759 whole entry, looked up): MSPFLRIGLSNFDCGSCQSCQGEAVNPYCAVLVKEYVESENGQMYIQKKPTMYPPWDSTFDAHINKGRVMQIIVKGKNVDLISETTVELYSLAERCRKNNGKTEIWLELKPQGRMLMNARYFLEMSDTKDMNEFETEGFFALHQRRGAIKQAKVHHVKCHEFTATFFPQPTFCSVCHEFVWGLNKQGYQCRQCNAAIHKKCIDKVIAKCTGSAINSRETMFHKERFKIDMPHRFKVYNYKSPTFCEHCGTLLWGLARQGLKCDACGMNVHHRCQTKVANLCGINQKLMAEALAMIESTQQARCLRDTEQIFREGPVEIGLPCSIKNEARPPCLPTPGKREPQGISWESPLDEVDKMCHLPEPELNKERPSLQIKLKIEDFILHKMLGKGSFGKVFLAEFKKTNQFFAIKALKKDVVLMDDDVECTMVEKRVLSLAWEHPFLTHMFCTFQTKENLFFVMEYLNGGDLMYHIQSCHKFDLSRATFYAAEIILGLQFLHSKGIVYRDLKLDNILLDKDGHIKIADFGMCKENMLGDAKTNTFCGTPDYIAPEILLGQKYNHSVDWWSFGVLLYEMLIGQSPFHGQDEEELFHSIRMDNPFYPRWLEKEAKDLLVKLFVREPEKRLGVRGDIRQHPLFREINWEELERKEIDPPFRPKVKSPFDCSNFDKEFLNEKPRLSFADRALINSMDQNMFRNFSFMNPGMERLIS

TXK (human) = TXK (human) (UniProt P42681)
MAP4K1 (human) = MAP4K1 (human) (UniProt Q92918)
PAK4 (human) = PAK4 (human) (UniProt O96013)
AXL (human) = AXL (human) (UniProt P30530)
RPS6KA5 KD1 (human) = RPS6KA5 KD1 (human) (UniProt O75582)
GRK1 (human) = GRK1 (human) (UniProt Q15835)
MYLK3 (human) = MYLK3 (human) (UniProt Q32MK0)
PRKX (human) = PRKX (human) (UniProt P51817)
FGFR1 (human) = FGFR1 (human) (UniProt P11362)
Chain of FGFR1 (human) (P11362 whole entry, looked up): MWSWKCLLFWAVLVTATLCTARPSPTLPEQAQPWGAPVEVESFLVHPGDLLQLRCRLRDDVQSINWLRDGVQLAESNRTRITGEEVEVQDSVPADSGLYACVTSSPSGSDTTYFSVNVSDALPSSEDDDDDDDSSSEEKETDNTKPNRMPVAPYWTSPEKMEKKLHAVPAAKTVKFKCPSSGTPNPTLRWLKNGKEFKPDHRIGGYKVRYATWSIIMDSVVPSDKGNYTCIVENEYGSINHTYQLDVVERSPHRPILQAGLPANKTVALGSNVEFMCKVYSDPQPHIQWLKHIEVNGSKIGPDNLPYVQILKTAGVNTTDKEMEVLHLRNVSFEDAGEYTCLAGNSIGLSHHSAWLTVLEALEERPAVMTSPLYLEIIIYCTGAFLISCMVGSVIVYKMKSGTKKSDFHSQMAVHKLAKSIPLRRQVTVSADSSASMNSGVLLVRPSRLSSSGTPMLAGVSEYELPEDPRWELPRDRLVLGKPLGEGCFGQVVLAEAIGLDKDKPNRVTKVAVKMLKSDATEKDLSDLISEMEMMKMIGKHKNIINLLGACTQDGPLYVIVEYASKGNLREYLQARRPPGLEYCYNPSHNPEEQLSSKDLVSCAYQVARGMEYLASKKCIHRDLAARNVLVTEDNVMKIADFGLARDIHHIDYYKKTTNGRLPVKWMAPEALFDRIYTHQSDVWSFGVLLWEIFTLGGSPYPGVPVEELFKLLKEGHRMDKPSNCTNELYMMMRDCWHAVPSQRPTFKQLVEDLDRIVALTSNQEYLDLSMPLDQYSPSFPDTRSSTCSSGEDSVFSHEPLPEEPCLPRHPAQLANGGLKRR

Chain of PRKAA2 (human) (P54646 whole entry, looked up): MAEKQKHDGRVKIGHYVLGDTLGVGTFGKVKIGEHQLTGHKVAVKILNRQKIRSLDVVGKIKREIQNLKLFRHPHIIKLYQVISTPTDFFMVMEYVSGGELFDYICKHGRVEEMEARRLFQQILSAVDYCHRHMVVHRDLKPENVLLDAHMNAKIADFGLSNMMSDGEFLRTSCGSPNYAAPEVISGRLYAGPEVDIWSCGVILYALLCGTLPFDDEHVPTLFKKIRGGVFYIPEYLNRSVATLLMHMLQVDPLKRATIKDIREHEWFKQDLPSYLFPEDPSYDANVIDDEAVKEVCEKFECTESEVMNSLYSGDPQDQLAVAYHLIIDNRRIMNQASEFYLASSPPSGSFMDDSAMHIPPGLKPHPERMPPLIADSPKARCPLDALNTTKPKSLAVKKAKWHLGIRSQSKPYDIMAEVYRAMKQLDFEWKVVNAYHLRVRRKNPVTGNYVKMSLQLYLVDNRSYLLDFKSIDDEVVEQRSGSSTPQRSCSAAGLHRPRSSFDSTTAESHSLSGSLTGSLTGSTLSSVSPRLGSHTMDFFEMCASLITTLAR
Chain of BMPR2 (human) (Q13873 whole entry, looked up): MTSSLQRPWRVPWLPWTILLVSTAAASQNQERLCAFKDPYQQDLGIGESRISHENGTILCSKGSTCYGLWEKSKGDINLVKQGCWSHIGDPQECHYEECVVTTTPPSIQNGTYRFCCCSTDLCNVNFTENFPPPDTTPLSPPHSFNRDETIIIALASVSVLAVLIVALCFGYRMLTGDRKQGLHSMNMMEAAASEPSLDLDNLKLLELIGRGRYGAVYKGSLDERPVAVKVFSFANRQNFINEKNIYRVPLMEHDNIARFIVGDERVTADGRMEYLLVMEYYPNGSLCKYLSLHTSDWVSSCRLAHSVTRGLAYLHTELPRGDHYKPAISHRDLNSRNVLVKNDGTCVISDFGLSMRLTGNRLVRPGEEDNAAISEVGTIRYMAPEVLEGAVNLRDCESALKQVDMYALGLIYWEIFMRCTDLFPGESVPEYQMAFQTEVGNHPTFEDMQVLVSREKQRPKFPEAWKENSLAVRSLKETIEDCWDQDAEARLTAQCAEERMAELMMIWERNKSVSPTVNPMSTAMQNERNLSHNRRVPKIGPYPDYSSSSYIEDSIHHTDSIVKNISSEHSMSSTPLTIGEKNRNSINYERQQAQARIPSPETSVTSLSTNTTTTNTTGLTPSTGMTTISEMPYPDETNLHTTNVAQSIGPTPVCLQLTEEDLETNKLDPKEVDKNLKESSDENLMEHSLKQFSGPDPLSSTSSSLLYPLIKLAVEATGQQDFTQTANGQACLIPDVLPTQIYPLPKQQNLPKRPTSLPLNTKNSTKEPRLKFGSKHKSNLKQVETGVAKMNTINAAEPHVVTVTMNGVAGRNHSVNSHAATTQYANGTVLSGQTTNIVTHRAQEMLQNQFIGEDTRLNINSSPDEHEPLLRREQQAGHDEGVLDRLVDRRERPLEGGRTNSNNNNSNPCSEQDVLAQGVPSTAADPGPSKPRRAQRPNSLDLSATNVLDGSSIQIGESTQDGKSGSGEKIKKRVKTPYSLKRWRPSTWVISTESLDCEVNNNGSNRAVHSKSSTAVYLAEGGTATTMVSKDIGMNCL

SMILES | kinase still bound, per cent of control (HUNK (human)) [%] | kinase still bound, per cent of control (BMPR2 (human)) [%] | kinase still bound, per cent of control (PRKACA (human)) [%] | kinase still bound, per cent of control (PRKD1 (human)) [%] | kinase still bound, per cent of control (CDK7 (human)) [%] | kinase still bound, per cent of control (PRKAA2 (human)) [%] | kinase still bound, per cent of control (ACVR1B (human)) [%] | kinase still bound, per cent of control (RPS6KA1 KD1 (human)) [%] | kinase still bound, per cent of control (NEK4 (human)) [%] | kinase still bound, per cent of control (IKBKE (human)) [%] | kinase still bound, per cent of control (DMPK (human)) [%] | kinase still bound, per cent of control (ACVR2A (human)) [%] | kinase still bound, per cent of control (SRPK1 (human)) [%] | kinase still bound, per cent of control (SRMS (human)) [%] | kinase still bound, per cent of control (TYRO3 (human)) [%] | kinase still bound, per cent of control (CIT (human)) [%] | kinase still bound, per cent of control (DYRK1A (human)) [%] | kinase still bound, per cent of control (PIP4K2B (human)) [%] | kinase still bound, per cent of control (FYN (human)) [%] | kinase still bound, per cent of control (EPHA4 (human)) [%] | further results
COc1cc2ncnc(Nc3cccc(Cl)c3)c2cc1OC | 69 | 100 | 94 | 89 | 26 | 100 | 100 | 93 | 76 | 55 | 79 | 92 | 67 | 60 | 23 | 7.4 | 40 | 97 | 81 | 72 | kinase still bound, per cent of control (MAPKAPK2 (human)): 100%; kinase still bound, per cent of control [1]: 0.05%; kinase still bound, per cent of control (FGR (human)): 32%; kinase still bound, per cent of control (CASK (human)): 67%; kinase still bound, per cent of control (PHKG1 (human)): 67%; kinase still bound, per cent of control (ACVR1 (human)): 74%; kinase still bound, per cent of control [2]: 67%; kinase still bound, per cent of control (MAP3K13 (human)): 100%; kinase still bound, per cent of control (AKT2 (human)): 100%; kinase still bound, per cent of control [3]: 84%; kinase still bound, per cent of control (PRKCQ (human)): 100%; kinase still bound, per cent of control (TXK (human)): 63%; kinase still bound, per cent of control (MAP4K1 (human)): 93%; kinase still bound, per cent of control (PAK4 (human)): 84%; kinase still bound, per cent of control (AXL (human)): 19%; kinase still bound, per cent of control (RPS6KA5 KD1 (human)): 100%; kinase still bound, per cent of control (GRK1 (human)): 100%; kinase still bound, per cent of control (MYLK3 (human)): 76%; kinase still bound, per cent of control (PRKX (human)): 100%; kinase still bound, per cent of control (FGFR1 (human)): 87%
O=c1[nH]c2ccccc2n1C1CCN(Cc2ccc(-c3nc4cc5[nH]cnc5cc4nc3-c3ccccc3)cc2)CC1 | 72 | 100 | 100 | 86 | 82 | 95 | 100 | 91 | 93 | 100 | 98 | 88 | 99 | 65 | 73 | 47 | 90 | 88 | 100 | 100 | kinase still bound, per cent of control (MAPKAPK2 (human)): 100%; kinase still bound, per cent of control [1]: 53%; kinase still bound, per cent of control (FGR (human)): 100%; kinase still bound, per cent of control (CASK (human)): 79%; kinase still bound, per cent of control (PHKG1 (human)): 100%; kinase still bound, per cent of control (ACVR1 (human)): 92%; kinase still bound, per cent of control [2]: 100%; kinase still bound, per cent of control (MAP3K13 (human)): 100%; kinase still bound, per cent of control (AKT2 (human)): 100%; kinase still bound, per cent of control [3]: 100%; kinase still bound, per cent of control (PRKCQ (human)): 94%; kinase still bound, per cent of control (TXK (human)): 87%; kinase still bound, per cent of control (MAP4K1 (human)): 51%; kinase still bound, per cent of control (PAK4 (human)): 74%; kinase still bound, per cent of control (AXL (human)): 45%; kinase still bound, per cent of control (RPS6KA5 KD1 (human)): 100%; kinase still bound, per cent of control (GRK1 (human)): 100%; kinase still bound, per cent of control (MYLK3 (human)): 100%; kinase still bound, per cent of control (PRKX (human)): 100%; kinase still bound, per cent of control (FGFR1 (human)): 73%
